We go through 9 molecules from ChEMBL document CHEMBL1201862, “PubChem BioAssay data set” (2004).

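96-well plates; 48 h exposure; 5 concentrations. Endpoints by linear interpolation between flanking doses. Not reached: highest tested concentration assigned. GI50 = concentration required for 50% inhibition of growth.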 Active and inactive are the calls of the source. Cut-off read from the data, not from the text of the source: active = GI50 up to about 1.1 µM and inactive = higher. Where only a bound is given, the exact number is not on record here.

Holding throughout (assay): NCI tumour cell line growth inhibition, 48 h
Assay [1] relates to A549.
For assay [2], the system named is COLO 205.
Assay [3] has as its system HCT-15.
Assay [4] concerns HOP-92.
Assay [5] has as its system IGROV-1.
Assay [6] deals with M14.
Assay [7] deals with MDA-MB-231.
Assay [8] relates to NCI-H23.
Assay [9] has as its system NCI/ADR-RES.
The subject of assay [10] is OVCAR-5.
For assay [11], the system named is OVCAR-8.
Assay [12] deals with RXF 393.
Assay [13] deals with SK-MEL-28.
The subject of assay [14] is SK-MEL-2.
In assay [15] the test system is SK-OV-3.
Assay [16] concerns SNB-19.
Assay [17] has as its system U-251.
The test system of assay [18] is A498.
For assay [19], the system named is LOX IMVI.

For `Clc1ccccc1CN1COc2c(cc(Cl)c3cccnc23)C1`, the GI50 in assay [1] was 3.35 µM (inactive); in assay [2], 19 µM (inactive); in [3] it was 0.165 µM; in assay [4] it was 3.18 µM (inactive); in [5] it was 5.55 µM (inactive); in [6], 3.77 µM (inactive). Moreover, the GI50 in [7] was 2.3 µM (inactive); in assay [8], 3.38 µM (inactive); in [9], 0.224 µM (active); in assay [10], 4.28 µM (inactive); in assay [11] it was 2.85 µM (inactive); in [12] it was 13.7 µM (inactive). In addition, the GI50 was 6.27 µM (inactive) in assay [13]; 6.19 µM (inactive) in assay [14]; 8.75 µM (inactive) in assay [15]; 4.35 µM (inactive) in assay [16]; 3.33 µM (inactive) in assay [17].
As for `Cc1cc2c(cc1Cl)SSc1cc(Cl)c(C)cc1S(=O)(=O)Nc1nc(N)nn1C(O)n1nc(N)nc1NS2(=O)=O`, the GI50 in [18] was > 10 µM (inactive); in assay [1], > 10 µM (inactive); in assay [2], > 10 µM (inactive); in [3] it was more than 10 µM; in assay [4], > 10 µM (inactive); in assay [5], > 10 µM (inactive). Also, the GI50 in assay [19], in [6], in assay [8], in assay [9], in [10] and in assay [11] was > 10 µM (inactive) throughout. The GI50 in assay [12], in assay [13], in [14], in assay [15], in assay [16] and in assay [17] was > 10 µM (inactive) in each case.
As for `O=S1(=O)c2ccccc2NC(c2ccc3ccccc3c2)CC1c1ccccc1F` (stereo not given), the GI50 in assay [18] is > 100 µM (inactive); in assay [1] it was > 100 µM (inactive); in assay [2], > 100 µM (inactive); in assay [3], more than 100 µM; in assay [5], > 100 µM (inactive); in assay [19], > 100 µM (inactive). Also, the GI50 in assay [6], in [8], in assay [10], in assay [11], in [12] and in assay [13] was > 100 µM (inactive) throughout. For the same molecule, the GI50 in [14], in assay [15] and in assay [16] was > 100 µM (inactive) in each case.
For the molecule `CC(=O)Oc1ccc2c(c1)O/C(=C\c1ccc(N(C)C)cc1)C2=O`, the GI50 in assay [1] is > 100 µM (inactive); in assay [2], > 100 µM (inactive); in assay [3] it was 67 µM; in assay [5] it was > 100 µM (inactive); in assay [6] it was > 100 µM (inactive); in assay [7], 68.5 µM (inactive). The GI50 in assay [8] is > 100 µM (inactive); in assay [9], 29.6 µM (inactive); in assay [11], > 100 µM (inactive); in assay [12], 73.5 µM (inactive); in assay [13], > 100 µM (inactive); in [15], > 100 µM (inactive). The GI50 in assay [16] was 53.8 µM (inactive); in [17], 37.7 µM (inactive).
For the molecule `CCCCNC(=S)c1ccc(OC(=O)Nc2ccc(Cl)cc2)cc1`, the GI50 in assay [18] is 85.1 µM (inactive); in assay [1], 39.1 µM (inactive); in assay [2], 15.9 µM (inactive); in assay [3] it was 12.2 µM; in assay [5], 3.02 µM (inactive); in assay [19] it was 0.573 µM (active). The GI50 was 9.27 µM (inactive) in assay [6]; 31.2 µM (inactive) in [8]; 12.4 µM (inactive) in assay [9]; 40.3 µM (inactive) in [10]; 12.6 µM (inactive) in assay [11]; 22.3 µM (inactive) in assay [13]. Moreover, the GI50 in assay [14] is 19.3 µM (inactive); in assay [15] it was > 100 µM (inactive); in assay [16], > 100 µM (inactive); in [17], > 100 µM (inactive).
Turning to `O=C(NN1C(=O)C=CC1=O)c1ccccc1Nc1ccccc1C(=O)NN1C(=O)C=CC1=O`, the GI50 in assay [2] is > 100 µM (inactive); in [3] it was more than 100 µM; in assay [4] it was > 100 µM (inactive); in [5], > 100 µM (inactive); in assay [19], > 100 µM (inactive); in assay [6] it was > 100 µM (inactive). Moreover, the GI50 in assay [7], in assay [8], in assay [9], in [10], in assay [11] and in assay [12] was > 100 µM (inactive) throughout. For the same molecule, the GI50 in assay [13], in assay [14], in [16] and in assay [17] was > 100 µM (inactive) each time.
For `CCOP(=O)(OCC)C(c1ccc(F)cc1)N(C(=O)NC(F)(F)F)c1ccc(OC)cc1` (stereo not given), the GI50 was > 100 µM (inactive) in assay [1]; > 100 µM (inactive) in assay [2]; more than 100 µM in assay [3]; > 100 µM (inactive) in [5]; > 100 µM (inactive) in assay [19]; > 100 µM (inactive) in [6]. For the same molecule, the GI50 in assay [7], in assay [8], in assay [9], in assay [10], in assay [11] and in [12] was > 100 µM (inactive) throughout. In addition, the GI50 in assay [13], in [16] and in [17] was > 100 µM (inactive) throughout.
On to `O=[N+]([O-])c1ccc(-c2nc3ccccc3o2)cc1`, for which the GI50 was > 100 µM (inactive) in assay [18]; > 100 µM (inactive) in [1]; > 100 µM (inactive) in assay [2]; more than 100 µM in assay [3]; > 100 µM (inactive) in assay [4]; > 100 µM (inactive) in assay [5]. Also, the GI50 in assay [19], in assay [6], in assay [8], in [9], in assay [10] and in assay [11] was > 100 µM (inactive) in each case. In addition, the GI50 in [12], in assay [13], in assay [14], in assay [15], in assay [16] and in assay [17] was > 100 µM (inactive) in each case.
For the molecule `c1ccc2sc(C3(N4CCC5(CC4)OCCO5)CCCCC3)cc2c1`, the GI50 in assay [18] was > 100 µM (inactive); in assay [1], > 100 µM (inactive); in assay [2] it was 48 µM (inactive); in [3] it was more than 100 µM; in assay [4], 25.8 µM (inactive); in assay [5], > 100 µM (inactive). The GI50 is > 100 µM (inactive) in assay [19]; 61.1 µM (inactive) in assay [6]; > 100 µM (inactive) in assay [8]; > 100 µM (inactive) in [9]; 55.5 µM (inactive) in assay [10]; > 100 µM (inactive) in assay [11]. The GI50 in assay [12], in assay [13], in assay [15] and in assay [16] was > 100 µM (inactive) throughout.
